# Measurements reported in PubChem BioAssay (NCI).
# Where “and” joins values, the source holds several entries; their conditions need not be identical. Equal values may be shown once.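 Test compounds were applied to cells in 96-well plates for 48 hours at 5 doses. At the GI50, growth is halved. TGI: total growth inhibition.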 Where a SMILES comes first, the peptide text is derived from it. [ ]: non-standard residue; d: D form. The star is where a group is joined. ξ: configuration not given here. NMeN = CN[C@@H](CC(N)=O)C(=O)O; NMeV = CN[C@H](C(=O)O)C(C)C; ξNMeV = CNC(C(=O)O)C(C)C; Boc = CC(C)(C)OC(=O)*; ξNMeA = CNC(C)C(=O)O
# Tests used:
# Experiment in all cases: inhibition of tumour cell growth, NCI panel, 48 h
# [1] = tested on: NCI-H23 lung
# [2] = tested on: SK-MEL-2 melanoma
# [3] = tested on: T-47D breast
# [4] = tested on: LOX IMVI melanoma
# [5] = tested on: SK-OV-3 ovarian
# [6] = tested on: SNB-75 CNS
# [7] = tested on: SR leukemia
# [8] = tested on: OVCAR-5 ovarian
# [9] = tested on: A498 renal
# [10] = tested on: 786-0 renal
Compound,GI50 [1],TGI [1],GI50 [2],TGI [2],GI50 [3],TGI [3],GI50 [4],TGI [4],GI50 [5],TGI [5],GI50 [6],TGI [6],GI50 [7],TGI [7],GI50 [8],TGI [8],GI50 [9],TGI [9],GI50 [10],TGI [10]
C=CCN(CC=C)C(=O)c1cc(C)nc2c1c(=O)n(-c1ccccc1)c(=O)n2CC(O)CN1CCN(c2ncccn2)CC1 (stereo not drawn),> 100 µM,> 100 µM,> 100 µM,> 100 µM,> 100 µM,> 100 µM,> 100 µM,> 100 µM,> 100 µM,> 100 µM,29 µM,> 100 µM,> 100 µM,> 100 µM,> 100 µM,> 100 µM,> 100 µM,> 100 µM,> 100 µM,> 100 µM
C=C1C(=O)[C@@]23CC1C(O)[C@@H](OC(C)=O)[C@@H]2C1(C)C(OC(C)=O)C[C@@H](OC(C)=O)C(C)(C)[C@@H]1C[C@H]3OC(C)=O (stereo partly drawn),7.86 µM and 2.63 µg/mL,> 10 µM and 7.68 µg/mL,> 10 µM and 2.46 µg/mL,> 10 µM and 5.65 µg/mL,2.14 µg/mL,4.55 µM and 4.57 µg/mL,1.82 µg/mL,> 10 µM and 3.31 µg/mL,> 10 µM and 16.5 µg/mL,> 10 µM and 30.2 µg/mL,> 10 µM and 7.25 µg/mL,> 10 µM and 20.5 µg/mL,1.7 µM and 0.255 µg/mL,4.6 µM and 1.63 µg/mL,> 10 µM and 7.32 µg/mL,> 10 µM and 16 µg/mL,16.3 µg/mL,> 10 µM and 30.6 µg/mL,1.81 µg/mL,> 10 µM and 3.97 µg/mL
COC(=O)C(C)N(C)C(=O)[C@H](CC(N)=O)N(C)C(=O)[C@@H]1CCCN1C(=O)[C@H](C(C)C)N(C)C(=O)C(C(C)C)N(C)C(=O)[C@@H](NC(=O)OC(C)(C)C)C(C)C (stereo partly drawn) (Boc-V[ξNMeV][NMeV]P[NMeN][ξNMeA]-OMe),,> 50 µM,> 100 µM,> 100 µM,,> 50 µM,13.5 µM,50 µM and 27 µM,> 100 µM,> 100 µM,,> 100 µM,,> 100 µM,> 100 µM,> 100 µM,> 100 µM,> 100 µM,57 µM,> 100 µM
C=CCN1C=CC(=O)[C@H](O[Si](C)(C)C(C)(C)C)[C@@H]1/C=C/c1ccccc1,13.8 µM,27.9 µM,17 µM,34.2 µM,4.04 µM,17 µM,13.1 µM,26.4 µM,14.9 µM,28.6 µM,10.5 µM,22.7 µM,5.21 µM,26.1 µM,17.5 µM,31.9 µM,13.2 µM,26.1 µM,15.4 µM,29.4 µM
COc1cc(C(c2cc3c(cc2O)OCO3)N2CCCCC2)cc(OC)c1OC (stereo not drawn),,31.8 µM,,32.9 µM,,47.8 µM,,28.4 µM,,56.2 µM,,33.5 µM,,> 23.5 µM,,32.2 µM,,35.5 µM,,12.9 µM
COC(=O)c1c2c(c(C)[n+]([O-])c1C)C(=O)C=C(NCc1ccc(OC)cc1)C2=O,1.36 µM,4.35 µM,2.14 µM,6.64 µM,0.994 µM,4.18 µM,0.911 µM,3.77 µM,3.08 µM,9.3 µM,5.12 µM,9.53 µM,3.5 µM,> 100 µM,2.3 µM,6.13 µM,1.59 µM,6.21 µM,5.48 µM,23.3 µM
Nc1cc(-c2cccc(OC(F)(F)F)c2)nc2ccc(N3CCCC3)cc12,0.0716 µM and 0.0803 µM and 0.0609 µM,43.1 µM and > 100 µM,0.4 µM and 0.0887 µM and 0.787 µM,12.8 µM and > 100 µM,18.8 µM,92.4 µM,0.0528 µM and 0.0485 µM and 0.046 µM,,0.071 µM and 0.0456 µM and 0.0406 µM,> 100 µM,0.0427 µM and 0.0525 µM and 0.0495 µM,12.2 µM and > 100 µM and > 64.4 µM,0.0275 µM and 0.0154 µM and 0.0135 µM,,0.113 µM and 0.0843 µM and 0.0687 µM,99.2 µM and > 100 µM,0.0271 µM and 0.023 µM and 0.0266 µM,0.193 µM and 0.0936 µM and 0.257 µM,0.0656 µM and 0.078 µM and 0.0573 µM,12.3 µM and > 100 µM and > 47.8 µM
O=S(=O)(c1ccc(N=C2NN=C(c3c[nH]c4ccccc34)CS2)cc1)N1CCOCC1,18.3 µM,> 100 µM,6.22 µM,> 100 µM,3.56 µM,78.6 µM,11.2 µM,> 100 µM,> 100 µM,> 100 µM,21.6 µM,> 100 µM,4.81 µM,> 100 µM,49.1 µM,> 100 µM,15.7 µM,> 100 µM,2.55 µM,42.3 µM
c1cc(OCCN2CCCCC2)ccc1CNc1ccc2nc(CCC3CCCCC3)[nH]c2c1,2.03 µM,4.91 µM,1.88 µM,3.62 µM,1.71 µM,4.52 µM,1.75 µM,3.19 µM,2.07 µM,4.18 µM,1.62 µM,4.08 µM,0.617 µM,3.01 µM,2.04 µM,5.64 µM,1.67 µM,4.08 µM,1.65 µM,3.55 µM
COc1cc2cc(C(=O)Nc3cc(N)c4ccccc4c3CCCl)[nH]c2c(OC)c1OC,0.0166 µM,0.264 µM,0.0895 µM,0.174 µM,0.0372 µM,0.237 µM,0.0301 µM,1.53 µM,0.0603 µM,,0.0656 µM,0.202 µM,< 0.005 µM,0.0804 µM,0.0533 µM,2.13 µM,0.0271 µM,0.19 µM,< 0.005 µM,1.09 µM
O=C(C[n+]1ccccc1)N=N/C(C(=O)Nc1c(Cl)c(O)c2ccccc2c1O)=C1/C(=O)Oc2cc(O)ccc2C1=O,,17.3 µM,,8.1 µM,,32.1 µM,,> 100 µM,,27.9 µM,,39.4 µM,,53.6 µM,,25.5 µM,,57.5 µM,,> 100 µM
